# Experimental data as given in patent US20260115162A1, “COMPOSITION OR ASSOCIATION OF COMPOUNDS PREFERABLY FOR USE IN THE TREATMENT OF NERVOUS DISEASES IN PARTICULAR NEURODEGENERATIVE DISEASES, METHOD FOR THE PREPARATION OF SUCH COMPOSITION OR ASSOCIATION OF COMPOUNDS AND USES THEREOF” (PHARMACEUTICA SAN MARCO S.R.L., priority 2022, published 2026).
# Where two headings read alike, the source gives them in different places.
# Experiments:
# [1] = Pharmacokinetics of βBA and AKBA via os in healthy volunteers, fasted and hyperlipidic meal (Sterk V et al. 2004); format: in vivo, humans
# From the text: Indeed, βBA has a concentration in the blood: • at least 6 times higher than AKBA both in the fasting condition and with a hyperlipidic meal; • increased by 6 times after hyperlipidic meal so that the plasma/os ratio passes from 0.09 to 0.55.
# [2] = Plasma levels of βBA and AKBA via os in patients (Gerbeth K et al. 2011); format: in vivo, humans
# intact mice = test: Behavioral tests on intact animals (open field, freezing); format: in vivo
# Protocol: The trials were performed at the Department of Clinical and Experimental Medicine of the University of Foggia according to the following rationale. • 1. In the present mouse model of beta-amyloid toxicity, using validated tests in mice, we evaluated the behaviors: • a. antidepressant: Tail Suspension Test (TST); Forced Swimming Test (FST); Splash Test (ST) with latency time (sec) and self-care (sec) measurement. • b. antianxiety: Open Field Test with measurement of distance traveled (m), time spent in the wall (sec), time spent in the center (sec), center entries (n); Freezing Test (sec). • c. on memory, learning, coordination of motor skills, fear conditioning: Rotarod Test with measure of Latency to Fall, repeated after training to evaluate motor learning. • 2. We tested the protective effects with the following procedure: • a. individually: βCP, FE, βBA, DHA and HA4; • b. in association with pairs: βCP+HA4, FE+HA4, βBA+HA4, FE+βCP, βBA+FE, βBA+βCP. • c. in association, all four together: βCP+FE+βBA+HA4 • d. versus control (SHAM), • e. using the mouse model of an Aβ-induced depressive phenotype. • 3. These behavioral tests were integrated with serotonin, dopamine, noradrenaline and their metabolites prefrontal cortex and hippocampus measurement. • 4. Furthermore, we evaluated the cortical and hippocampal glutamate (GLU) levels in mice treated with AP and subsequently we tested the ability of βCP, FE, βBA and HA4, to modulate this neurochemical parameter.
# βCP, FE e βBA (Merck, Cayman Chemical Company) was dissolved in sunflower oil, this vehicle was chosen in order to maintain a better tasting and higher density of the final solution thus reducing reflux through the digestive tract.
# Ten μl of the solution (or vehicle alone) were administered sublingually to mice. Brain βCP, FE e βBA were quantified in a separate subset of mice at 5, 15 and 30 min after their administration.
# Open Field Test. Mice were placed in an open field arena and allowed to explore for 30 min [Lama A et al. 2021]. After each trial, the arena floor was cleaned with 70% ethanol to avoid inter-assay bias. The movements of mice were video recorded and analyzed by ANY-maze tracking software (Ugo Basile-Varese, Gemonio, Italy). Locomotion was evaluated through total crossing measurements.
# [3] = patients, via os; cited from earlier work
# [4] = mice, via os, cited from earlier work
smiles,measurement,setting,value
"C[C@H]1[C@H](C)CC[C@]2(C)CC[C@]3(C)C(=CC[C@@H]4[C@@]5(C)CC[C@@H](O)[C@](C)(C(=O)O)[C@@H]5CC[C@]43C)[C@H]12 [βBA, β-boswellic acid]",plasma/os ratio,[1]; after hyperlipidic meal,0.55
same,blood concentration of βBA relative to AKBA,[1]; both fasting and hyperlipidic meal,at least 6 times
same,plasma/os ratio,[1]; fasting condition,0.09
same,Δos/plasma,"[1]; healthy volunteers, fasted conditions",10.9 fasted
same,Δos/plasma,"[1]; healthy volunteers, hyperlipidic fed conditions",1.82 hyperlipidic
same,increase in blood concentration / intestinal absorption induced by a hyperlipidic meal,"[1]; healthy volunteers, hyperlipidic meal vs fasted",6 times
same,Δos/plasma,[2],14.3
same,lowest dose showing antidepressant effects,"intact mice; intact mice, preliminary experiments (unpublished observations)",5 mg/kg
same,"effect in behavioral tests, individually","intact mice; mouse, in vivo",antidepressant and anxiolytic effect
same,concentration in the plasma,[3],"2,236 ng/g o ng/ml"
same,reduction of blood concentration compared to the dose introduced orally,[4]; intestinal mucosa to blood,up to 40 times
same,concentration in the brain,[4],"1,066 ng/g o ng/ml"
same,concentration in the plasma,[4],725 ng/g o ng/ml
